Source: publication PMC12040169 (PLOS Biology, 2025)

test: in vitro; conditions: human, hela cells, % viability

Structure (SMILES)	viability at 28.5 h, 10 µM
CS(=O)(=O)NC1CCN(C2CCc3c(Cl)cccc32)CC1 (stereo not drawn) [CBK305252]	93.7%
COc1ccc(CC(=O)NNC(=O)Nc2ccc(Cl)c(Cl)c2)cc1 [CBK262652]	92.6%
Cc1ccccc1CSCC(=O)NCCN1CCOCC1 [CBK269207]	103%
COc1cc(CNCc2ccco2)ccc1OCC(N)=O [CBK270204C]	105%
CC(NC(=O)CC1CCN(Cc2cccc(C(F)(F)F)c2)CC1)c1nc2ccccc2[nH]1 (stereo not drawn) [CBK285952]	104%
CC(C)(C)OCc1[nH]n(CCc2ccccc2)c(=O)c1Cc1c(Cl)cccc1Cl [CBK091452]	89.3%
CCOc1cc(OCC)cc(C(=O)N2CCCC3(CC(=O)c4ccc(C)cc4O3)C2)c1 (stereo not drawn) [CBK168067]	93.9%
COc1cc(F)ccc1-c1ccnc2[nH]c(=O)ccc12 [CBK073727]	74.2%
COc1ccccc1CN(C)C(=O)Nc1ccc(S(N)(=O)=O)cc1 [CBK306026]	90.4%
O=C(O)/C=C/c1cn([C@H]2C[C@@H](O)[C@@H](CO)O2)c(=O)[nH]c1=O [CBK201174]	92.9%
O=C1NC(c2cccnc2)Nc2sc3c(c21)CCCC3 (stereo not drawn) [CBK072377]	103%
CCOC(=O)CSC1=NNC(C)(c2c(O)c3ccccc3n(CC)c2=O)N1 (stereo not drawn) [CBK009370]	92.5%
COc1ccc(C(NC(=O)c2c(C)nc3sccn23)C2CC(O)C2)cn1 (stereo not drawn) [CBK307330]	95.3%
Cn1c(SCc2cccnc2)nnc1-c1cccs1 [CBK067706]	93.1%
NC(=O)c1c(N)c(C(N)=S)n2c1CCC2 [CBK019270]	98.1%
O=c1[nH]cc(-c2ccc(F)cc2)cc1CNCc1ccccc1F [CBK284696]	86.1%
CC1CCCN(Cc2c(C3CCNCC3)[nH]c3ncccc23)C1 (stereo not drawn) [CBK285078]	78.5%
CCNC(=O)CN1CCN(c2ccc(C#N)cc2C(F)(F)F)CC1 [CBK306112]	85%
CC(=O)N1CCC(C(=O)NC(=O)Nc2cccc(C)c2)CC1 [CBK034854]	94.3%
Clc1ccc(COc2cccc3cccnc23)cn1 [CBK002718]	93.2%
c1ccc(CCN2CCN(Cc3cccnc3)CC2)cc1 [CBK126424]	103%
Cc1nc(CCNCc2c(C)nn(C)c2N(C)C)cs1 [CBK304828]	88.3%
Cc1ccc(CCC(=O)N2CCCC2c2nc3ccccc3[nH]2)o1 (stereo not drawn) [CBK284012]	93.3%

Structure (SMILES)	viability at 28.5 h, 10 µM
COc1ccc(-c2nc(-c3ccncc3)ncc2C(=O)NC2CCCCC2)cc1 [CBK291111]	95.4%
Cc1noc([C@@H]2C[C@H](NC(=O)c3ccc(C#N)cc3)CN2C)n1 [CBK288872]	97.6%
O=C(CC1Sc2ccc(Cl)cc2NC1=O)Nc1ccc([N+](=O)[O-])cc1 (stereo not drawn) [CBK264860]	98%
COc1ccc(C2=NN(c3ccccc3)C(c3cn(-c4ccccc4)nc3-c3ccccc3)C2)cc1 (stereo not drawn) [CBK263230]	88.9%
CC(=O)NCCC(=O)Nc1cc(C)ccc1C [CBK306115]	96.6%
CO[C@H]1CN(C)C[C@@H]1NC(=O)c1cccc2c1NCCC2 [CBK307107]	106%
Cn1c(Sc2ccc(C(=O)O)cc2[N+](=O)[O-])nnc1-c1ccccc1 [CBK265047]	103%
Cc1cccc(OCc2nc3c4c5c(sc4ncn3n2)CCCCC5)c1C [CBK265284]	104%
CCN(CC)C(=O)COc1ccc(NC(=O)Nc2cc(C)on2)cc1Cl [CBK305734]	104%
Cc1occc1SCC(=O)Nc1ccc(CN2CCOCC2)cc1 [CBK306453]	89.9%
CC(=O)c1ccc(-c2cn3ccnc3c(N3CCN(C)CC3)n2)s1 [CBK037957]	94.4%
Cc1cc(NC(=O)CN2CCN(Cc3ccc4c(c3)CCO4)CC2)on1 [CBK305610]	92.5%
N#Cc1cccc(-n2cc(-c3ccc(Br)cc3F)nn2)c1 [CBK113143]	95.4%
COc1ccccc1-c1nccnc1NCc1cc(OC)c(OC)c(OC)c1 [CBK036642]	90.6%
CC(C)n1c(=O)n(CC(=O)N2CCCCCC2)c2cccnc21 [CBK283527]	92.4%
Cc1ccc(/C=C/C(=O)N2CCC3(CC2)CC(=O)c2cc(Cl)ccc2O3)cc1 [CBK156439]	95.1%
Cc1ccc(OCc2nnc(SCC(=O)c3cccs3)n2-c2ccccc2)cc1C [CBK265033]	101%
O=C(CSc1nnc(Cc2ccccc2)o1)N1c2ccccc2Sc2ccccc21 [CBK268008]	96.4%
Clc1ccccc1C1N(Cc2ccccc2)CCN1Cc1ccccc1 [CBK261217]	93.8%
CCOC(=O)c1nc(C2CCN(c3cccc(F)c3C#N)CC2)n[nH]1 [CBK304711]	119%
Cc1n[nH]c(C)c1-c1ccc2c(cnn2C)c1 [CBK307314]	70.3%
Cc1ccc(/C=C2\SC(=S)N(CCCC(=O)N3CCC(Cc4ccccc4)CC3)C2=O)cc1 [CBK264356]	101%
COc1ccc(C(C)C)cc1-c1cn2ccnc2c(N(C)CCN(C)C)n1 [CBK066368]	94.8%

Structure (SMILES)	viability at 28.5 h, 10 µM
O=C(CC1CCN(Cc2ccccn2)CC1)Nc1ccc(OC2CCCC2)cc1 [CBK285960]	104%
Cc1cc(Cl)c(S(=O)(=O)Nc2ccc(C#N)cc2)cc1OCC(N)=O [CBK266560]	112%
CCc1nccn1CCC(=O)Nc1ccc2c(c1)CCN2C(C)=O [CBK281446]	90.9%
CC(C)N1C(=O)[C@@H]2CN(C(=O)C3CCCC3)CCN2C1=O [CBK289612]	88.8%
COc1ccc(C2(C(=O)NCCc3c[nH]cn3)CC2)cc1 [CBK149834]	97.8%
COc1ccc(/C=C/C2=CCN(C)CC2)cc1Cn1cccn1 [CBK283859]	90.8%
CC(C)N(C)CCOc1ncccc1OCCO [CBK039171]	104%
COc1ccc(N2C(=O)c3ccc(C(=O)OCC(=O)c4ccc(-c5ccccc5)cc4)cc3C2=O)cc1 [CBK263532]	95.8%
COc1ccc(CC(=O)N2CCC(C3OCc4cc(-c5ccc(C(=O)N(C)C)cc5)ccc4O3)CC2)cc1 (stereo not drawn) [CBK149759]	88.2%
N/C(=N\OC(=O)COc1cccc2ccccc12)c1ccccn1 [CBK262999]	96.2%
CC(NC(=O)C1(Cn2ccnc2)CC1)c1ccccc1-n1cccn1 (stereo not drawn) [CBK307006]	94.3%
O=C(CCC(=O)c1ccc2c(c1)OCCO2)OCC(=O)c1ccc(F)cc1 [CBK264679]	103%
COc1nccc(N2CCN(C)C3(CCNC(=O)CC3)C2)c1C#N (stereo not drawn) [CBK307676]	116%
Cc1cccc(OCC(=O)Nc2ccc(-c3nc4ncccc4o3)cc2C)c1 [CBK269287]	87.3%
O=C1CCC(=O)N1CCn1c(=O)n(S(=O)(=O)c2ccc(-c3ccccc3)cc2)c2ccccc21 [CBK106494]	112%
Cc1cc(C)nc(NC(=O)OCCc2cccnc2)c1 [CBK138234]	95.1%
COc1ccc(C(NC(=O)COc2c(Cl)cc(C(=O)O)cc2Cl)C(C)C)cc1 (stereo not drawn) [CBK295344]	87.3%
COc1cc(C(C)=O)ccc1OCCCCN1CCOCC1 [CBK269713C]	98.2%
O=C(Nc1cncc(OC2CCNCC2)n1)c1cnccn1 [CBK036372T]	93%
O=[N+]([O-])c1ccccc1S(=O)(=O)N1CCN(Cc2cccc(Oc3ccccc3)c2)CC1 [CBK264283]	98.9%
CCOc1cc(/C=C2\SC(=N)NC2=O)ccc1OCc1ccc(Br)cc1 [CBK263813]	97.7%
FC(F)(F)c1cccc(-c2cnn(-c3ccc4c(c3)OCO4)n2)c1 [CBK112664]	89.6%
Cc1ccc(-c2nc3ccccc3c(=O)o2)cc1C [CBK288137]	97.4%

Structure (SMILES)	viability at 28.5 h, 10 µM
C[C@@H](Cn1nnc2ccccc21)NC(=O)Cc1cccs1 [CBK282312]	92.8%
O=C(NCc1ccccn1)c1cncc(Br)c1 [CBK265226]	88.1%
COc1ccnc(N2CCN(C(=O)c3cccc4c3NCCC4)CC2)n1 [CBK306639]	109%
CN(C)CCN1CCN(c2ccc(-c3ccsc3)cn2)CC1 [CBK036915]	96.2%
O=S(=O)(NCCCn1ccnc1)c1cccs1 [CBK269912]	95.1%
CCC(C(=O)N1CCc2nc(C)[nH]c(=O)c2C1)c1ccccc1 (stereo not drawn) [CBK284618]	91.6%
O=C(Cc1ccc(Cl)cc1)NC(=S)Nc1ccccc1O [CBK263905]	96.6%
O=c1[nH]c(=O)c2cc(S(=O)(=O)NCCN3CCc4ccccc43)ccc2[nH]1 [CBK286360]	91.5%
COc1ccc(-c2nnc(SCC(=O)NN)n2-c2ccccc2)cc1 [CBK263157]	87.3%
C[C@@H]1C(=O)Nc2ccc(F)cc2N1C(=O)N1CCCC1 [CBK007936]	96%
CCC(CO)Nc1cncc(-c2cccc(O)c2)n1 (stereo not drawn) [CBK037777]	96%
O=C(O)c1cccc(-n2c(S)nnc2-c2ccncc2)c1 [CBK269260]	105%
CC(C)(c1ccccc1)c1ccc(OCCNCCN)cc1 [CBK265102]	103%
CC(C)(C)c1ccc(OCCCC(=O)Nc2ccc(N3CCOCC3)cc2)cc1 [CBK264783]	88.8%
CCCc1cnc(N2CCOCC2)nc1 [CBK028742]	89%
COCCN(C(=O)CSc1ccc2ccccc2n1)C1CCS(=O)(=O)C1 (stereo not drawn) [CBK304988]	96.4%
CNC(=O)C1(Cc2ccccc2-c2cccc(F)c2)CCN(C(=O)Cc2ccccc2)CC1 [CBK285692]	115%
Cc1nn(Cc2ccccc2)c(Cl)c1C=Cc1cc(C(=O)O)c2ccccc2n1 [CBK296942]	95.4%
Cc1cc(C[C@@H]2COC[C@H]2NCc2ccc(Cl)cc2)on1 [CBK285402]	93.3%
CCOc1cccc(-c2cn3ccnc3c(N(C)CCN(C)C)n2)c1 [CBK066569]	89.7%
CCCC(=O)N1CCC(Cc2ccc(-c3cccc(C)c3)cc2)(C(=O)NC(C)C)CC1 [CBK285760]	93.9%
